From patent publication US7863415B2 (The Regents of the University of California, priority 2004, dated 2011)
“Also recorded” adds a separate entry of the source. Starred links: 1 amine or outer side, 2 acyl side, 3 side chain; linkers in the order of their positions; H or OH if unused. Non-standard residues stand in square brackets, D forms with d. Residues, ends and D or L forms follow the SMILES beside them. X1 = N=C(N)NC(=O)c1nc(Cl)c(N(CC(=O)[*:2])[*:1])nc1N

How the values were obtained:
[1] = system: T1, Compound 3c (C5am-Gly-Gly-Gly-Gly-Phe-Leu-OH)
T1 sequence: GGGGFL

[2] = system: T2, Compound 3b (C5am-Gly-D-Ala-Gly-Phe-D-Leu-OH)
T2 sequence: GXGFX

[3] = system: T3, Compound 3d (C5am conjugate of the peptide Gly-Gly-Gly-Phe-Leu)
T3 sequence: GGGFL

NHE1 and NCX = NHE1 and NCX inhibitors from the literature; cited from earlier work
NHE1 = NHE1 (Homo sapiens, UniProt P19634); test: NHE1 inhibition: sodium-dependent pHi recovery in BCECF-loaded U87 glial cells after ammonium chloride pre-pulse; format: cell-based; set-up: Sodium-dependent proton extrusion in U87 glial cells and in primary astrocytes is mediated by the type 1 sodium proton exchanger (NHE1); endogenous in cells; host or cells: U87 human glioma cells
Procedure: Intracellular pH Measurements. U87 glial cells were grown on glass coverslips and incubated for 30 minutes at 37° C. with the pH-sensitive dye, 2′,7′-bis(2-carboxyethyl)-5(6)-carboxyfluorescein-AM (BCECF-AM; Molecular Probes, OR). Cells were rinsed with HEPES Ringer buffer twice and maintained at 37° C. for an additional 15 minutes to permit intracellular hydrolysis of the AM ester; trapping BCECF within the cells. Cells on coverslips were placed in a Hitachi F2000 fluorescent spectrophotometer and excited at 440 and 507 nm with fluorescent emissions recorded at 535 nm (Hegde et al., J. Pharmacol. Exp. Ther., 310:67-74 (2004)).
NHE inhibition by compounds 3a and 3c was evaluated using intracellular pH (pHi) measurements in the U87 human glial cell line (Hegde et al., supra). Cells loaded with BCECF were then acidified using the ammonium chloride pre-pulse method (Roos et al., Physiol Rev, 61:296-434 (1981)). The subsequent sodium-dependent recovery of pHi by these cells in the absence of bicarbonate was monitored using a spectrofluorometer. Sodium-dependent proton extrusion in U87 glial cells and in primary astrocytes is mediated by the type 1 sodium proton exchanger (NHE1) (McLean et al., supra; Hegde et al., supra) and was monitored in the presence or absence of compound 3a or 3c.
IC50 drug determinations for NHE1. This method utilizes spectrofluorometric measurements of [H^+]i as described above. The ammonium chloride prepulse method can be used to acidify cells in the presence of HR that is sodium-substituted with NMDG. Perfusion of the acidified cells with HR that contains sodium causes activation of NHE1 that is inhibited in a concentration-dependent fashion as described in McLean et al., supra.

[4] = system: glioma cells and primary astrocytes; test: Cell entry by confocal microscopy; format: in vitro ADME
U87 glioma cells [5] = test: Glioma cell death, manual cell counts with trypan blue exclusion
[6] = system: glioma in poorly vascularized tumor regions; test: Single intracerebral infusion of DCB in tumor-bearing animals; format: in vivo; details: 10 pmol over 2 h
Procedure: Unfortunately, DCB was associated with 4 of 5 animals dying during the following 12 to 24 h.

[7] = system: [Ca^2+]i in U87 glioma cells; test: [Ca2+]i in U87 glioma cells loaded with fura-2AM, quantitative fluorescent microscopy; format: cell-based, human
Procedure: Therefore, the levels of [Ca^2+]i in U87 glioma cells loaded with fura-2AM were measured using quantitative fluorescent microscopy. […] The ATP-dependent calcium regulatory mechanisms within U87 glioma cells containing fura-2 were then examined. […] ATP synthase operates in reverse when milimolar concentrations of calcium are stored by the mitochondrion (Nicholls, Bioenergetics, 3, Academic Press, London, 3rd edition (2002)).
Quantitative fluorescent microscopy of [Ca^2+]i levels. [Ca^2+]i levels can be measured in cells loaded with either fura-2A or fura-2FFAM under the conditions described above.

[8] = system: enkephalinase (endopeptidase 24.11); test: Enzyme digestion with enkephalinase, LC-MS/ESI; format: in vitro ADME, porcine; details: for Conclusion (Peptidase: Enkephalinase): 10 μM conjugate, 10 units enzyme, 25° C., pH 7.4, 24 h; for Cleavage by enkephalinase (release of compound 3a): 24 h incubation, LC-MS
Procedure: (§1) Compound 3b is a C5am-Gly-peptide conjugate containing two D-amino acids, and compound 3c is a C5am-Gly-peptide conjugate coupled to a peptide to generate an analog of opioid peptides that cross the blood brain barrier (BBB). The resultant conjugates (compounds 3a-c) were tested for selective cleavage by the brain peptidase enkephalinase (neutral endopeptidase 24.11; Calbiochem) via incubation for 24 h in the presence or absence of the enzyme, and aliquots from the reaction solutions were then analyzed by LC-MS to identify the C5am-Gly conjugate (compound 3a), starting material, and enzymatic cleavage products (see, Scheme 3). As negative control experiments, the conjugates were analyzed following treatment with (1) bovine pancreatic trypsin (Calbiochem) or (2) the buffer solutions without enzymes.
(§2) Enzyme digestion. Endopeptidase 24.11 (neutral, porcine kidney) and trypsin (bovine pancreas) were purchased from CalBiochem (San Diego, Calif.) and used as received. Enzymatic cleavage experiments using endopeptidase 24.11 were conducted at 25° C. in a pH 7.4 Tris buffer (150 mM NaCl, 50 mM Tris, 0.1% Triton X-100) as recommended by the manufacturer (see also, Barnes et al., J. Neurochem., 64:1826-1832 (1995), Gafford et al., Biochemistry, 22:3265-3271 (1983)). Similarly, trypsin cleavage experiments were conducted at 25° C. in pH 7.4 Dulbecco's phosphate buffered saline (Gibco; Grand Island, N.Y.). The digestion reactions included 10 μM of the amiloride-peptide conjugate and 10 units of enzyme in 250 μL of buffer. Direct aliquots were analyzed by LC-MS/ESI following a 24 hour incubation period.
(§3) Enzyme Digestion Study. Compounds 3a-d were each incubated at 25° C. with 10 units of enkephalinase (endopeptidase 24.11) to determine their susceptibility towards enzymatic cleavage. Reaction aliquots were taken following a 24 hour incubation period and analyzed directly by LC-MS/ESI (Thermo Finnigan LCQ) for the presence of the starting material and the targeted cleavage product, compound 3a (C5am-Gly). […] Since there are no basic amino acid residues in compounds 3a-d, trypsin was employed as a negative control to ensure that any observed cleavage products could be ascribed only to endopeptidase-specific interactions (Jackson, Protein Science, 8:603-613 (1999)).

[9] = Incubation in buffer solutions without enzymes, LC-MS; format: in vitro ADME
Procedure: as §1

trypsin = molecular target: T4, trypsin (Bos taurus, UniProt P00760); test: Enzyme digestion with trypsin (negative control), LC-MS/ESI; format: in vitro ADME, bovine; details: for Conclusion (Peptidase: Trypsin): 10 μM conjugate, 10 units enzyme, 25° C., pH 7.4, 24 h; for Cleavage by trypsin (release of compound 3a): 24 h incubation, LC-MS
T4 construct: purchased CalBiochem (San Diego, Calif.); host or cells: bovine pancreas
T4 sequence (P00760 24-246): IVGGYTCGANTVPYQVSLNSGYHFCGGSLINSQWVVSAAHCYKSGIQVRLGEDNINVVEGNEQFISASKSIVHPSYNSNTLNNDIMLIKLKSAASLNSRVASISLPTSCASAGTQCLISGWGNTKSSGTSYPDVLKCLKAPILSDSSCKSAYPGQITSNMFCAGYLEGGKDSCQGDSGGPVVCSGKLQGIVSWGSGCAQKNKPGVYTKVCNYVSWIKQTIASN
Procedure: as §1, §2, §3

U87 glioma cells [10] = test: Glioma cell proliferation, manual cell counts with trypan blue; format: cell-based, human
Procedure: C(5)-amiloride glycine conjugate (C5am-Gly) inhibits NHE1 in U87 glioma cells and is antiproliferative. […] The inhibitory activity of C5am-Gly against NCX was tested and a systematic log dose screen of C5am-Gly against a panel of glioma cells and primary astrocytes was performed.
Manual cell counts with dye exclusion assays. Identical concentrations of glioma cells can be plated on 60 mm dishes and grown until 50% confluent. Following drug treatments, media containing floating cells can be collected in suspension. Adherent cells can be rinsed in calcium- and magnesium-free phosphate-buffered saline (PBS-CMF) and removed by incubation with 0.25% v/v trypsin for 5 minutes (37° C.). Cell suspensions can be combined with the floating fraction and centrifuged at 350×g for 5 minutes. The resulting pellet (one per dish) can be resuspended in equal volumes of PBS-CMF with 0.4% trypan blue and/or 500 nM Sytox Green. 10 μL aliquots of the suspension can be plated on a hemocytometer, and cells can be counted 5 minutes after staining. Simultaneous staining of cells with trypan (TB) and Sytox Green (SG) can be visualized by switching between visible light and fluorescein green.

U87 cells = test: Intracellular translocation into U87 cells by fluorescence microscopy; details: 50 μM; 90 and 180 min; 380 nm excitation, 510 nm emission
From the text: Fluorescence Microscopy. […] Excitation light was provided by a xenon arc lamp coupled to the Polychrome IV scanning monochromator (Till Photonics; Grafelfing, Germany) that alternately excites with different wavelengths. Excitation light was delivered by fiber optics to cells through the epifluorescence port of a Nikon E600 microscope coupled to a Nikon Fluor 60× water immersion lens. The detector was an Orca II-ER CCD digital camera (Hamamatsu USA; Bridgewater, N.J.), which is controlled by C-Imaging Simple PCI software (Compix; Cranberry Township, Pa.).
Intracellular emission intensities were collected in regions of interest (ROI) from an average of 4-8 cells/field using Simple PCI imaging software. […] Images were captured as TIFF files (C-imaging Simple PCI software), and light and fluorescent images of the same field were imported in Photoshop 6.0 and vector graphics added using Illustrator 9.0.1 (Adobe; San Jose, Calif.).

Sequence of NHE1 (P19634 whole entry): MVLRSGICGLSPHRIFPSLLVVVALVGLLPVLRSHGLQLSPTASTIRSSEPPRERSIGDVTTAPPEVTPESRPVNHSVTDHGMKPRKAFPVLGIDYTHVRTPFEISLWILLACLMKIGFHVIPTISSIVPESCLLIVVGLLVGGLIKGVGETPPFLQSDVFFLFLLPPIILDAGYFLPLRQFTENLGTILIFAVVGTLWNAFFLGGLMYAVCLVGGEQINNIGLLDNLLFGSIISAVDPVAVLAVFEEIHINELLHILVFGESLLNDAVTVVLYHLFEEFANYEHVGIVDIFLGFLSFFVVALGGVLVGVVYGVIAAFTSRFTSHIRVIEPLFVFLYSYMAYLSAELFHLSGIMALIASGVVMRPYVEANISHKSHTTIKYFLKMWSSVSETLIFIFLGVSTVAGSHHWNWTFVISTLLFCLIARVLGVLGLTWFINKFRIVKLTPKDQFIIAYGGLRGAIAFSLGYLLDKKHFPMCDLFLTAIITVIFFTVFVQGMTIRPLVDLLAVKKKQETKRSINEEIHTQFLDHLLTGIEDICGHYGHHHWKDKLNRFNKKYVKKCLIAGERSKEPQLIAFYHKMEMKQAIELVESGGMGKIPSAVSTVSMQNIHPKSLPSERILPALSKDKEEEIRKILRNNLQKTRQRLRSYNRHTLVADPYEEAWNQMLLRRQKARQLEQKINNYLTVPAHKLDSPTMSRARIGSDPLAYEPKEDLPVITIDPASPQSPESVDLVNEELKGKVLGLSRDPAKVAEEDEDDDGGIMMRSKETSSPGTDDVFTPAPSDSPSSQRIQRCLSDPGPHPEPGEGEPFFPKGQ

Compound: Enkephalinase (neutral endopeptidase 24.11, porcine kidney; CalBiochem)
- Enzymatic digestion, LC-MS fragments at 24 h; Conclusion [1]: Enkephalinase-mediated release of 3a
- Enzymatic digestion, LC-MS fragments at 24 h; Conclusion [2]: Enkephalinase resistant
- Enzymatic digestion, LC-MS fragments at 24 h; Conclusion [3]: Enkephalinase resistant

Compound: N=C(NCc1ccc(Cl)cc1Cl)NC(=O)c1nc(Cl)c(N)nc1N [DCB, 2,4-dichlorobenzamil]
- Rel. Activity (NHE1 and NCX): NCX > NHE
- Concentration that inhibits NHE1 and reduces pHi (NHE1; U87 glioma cells loaded with BCECF): 50-100 nM
- Time to enter glioma cells and primary astrocytes [4]: ≤ 150 min
- Concentration that killed U87 glioma cells (U87 glioma cells [5]; U87 glioma cells, C2am-Gly within 24 h): 15 µM
- Glioma Effect: cytotoxic concentration (U87 glioma cells [5]; glioma cells): 15 μM cytotoxic
- Concentration that killed glioma cells (U87 glioma cells [5]; glioma cells, amiloride within 48-72 hours): ≥ 20 µM
- Animals dying during the following 12 to 24 h [6]: 4 of 5
- Glioma death within poorly vascularized tumor regions (histology) [6]: extensive glioma death
- Effect of pretreatment on [Ca2+]i after calcium release from mitochondrial stores ([7]; U87 glioma cells, FCCP or oligomycin): increase to cytotoxic levels
- Persistent increase of [Ca2+]i ([7]; pretreatment followed by oligomycin or FCCP): > 800 nM

Compound: CC(C)C[C@@H](NC(=O)[C@H](Cc1ccccc1)NC(=O)CNC(=O)[C@@H](C)NC(=O)CNc1nc(N)c(C(=O)NC(=N)N)nc1Cl)C(=O)O [Compound 3b, C5am-Gly-D-Ala-Gly-Phe-D-Leu-OH] (H-[X1][dA]GF[dL]-OH)
- Conclusion (Peptidase: Enkephalinase) [8]: Enkephalinase resistant
- Cleavage by enkephalinase (release of compound 3a) [8]: not cleaved; also recorded: resistant
- Stability in control (buffer) digestion [9]: not cleaved
- Conclusion (Peptidase: Trypsin) (trypsin): Trypsin resistant
- Cleavage by trypsin (release of compound 3a) (trypsin): not cleaved; also recorded: resistant

Compound: N=C(N)NC(=O)c1nc(Cl)c(NCC(=O)O)nc1N [Compound 3a]
- IC50 (NHE1; U87 glial cells, sodium-dependent pHi recovery without bicarbonate, read-out: IC50 (μM) +/− SD (NHE inhibition)): 13 ± 7 µM
- Glioma Effect: antiproliferative concentration (U87 glioma cells [10]; glioma cells): ≦100 μM antiproliferative
- Proliferation of U87 glioma cells, % of stage-matched controls (U87 glioma cells [10]; ≦100 μM, 48 h): 22%
- Conclusion (Peptidase: Enkephalinase) [8]: Enkephalinase resistant
- Cleavage by enkephalinase (release of compound 3a) [8]: unaffected; also recorded: stable
- Stability in control (buffer) digestion [9]: unaffected
- Intracellular accumulation in U87 cells (U87 cells): no intracellular fluorescence above mean intracellular background; also recorded: failed to detect; also recorded: did not accumulate
- Conclusion (Peptidase: Trypsin) (trypsin): Trypsin resistant
- Cleavage by trypsin (release of compound 3a) (trypsin): unaffected; also recorded: stable

Compound: CCN(c1nc(N)c(C(=O)NC(=N)N)nc1Cl)C(C)C [EIPA, ethylisopropylamiloride]
- Reversal of NHE1 inhibition after removal of compound (NHE1; U87 cells): slow and incomplete recovery
- Cell entry by confocal microscopy ([4]; C2am-Gly after 90-240 minutes): Rapid cell permeation
- Intracellular accumulation in U87 cells (U87 cells): intracellular accumulation; also recorded: rapid cell permeation
